# Key:
# Type in all cases: cell-based
# [1] = biological target: T1, human TLR7 (Homo sapiens, UniProt Q9NYK1); assay: TLR7 inhibition reporter assay (HEK-Blue cells, SEAP reporter, gardiquimod stimulation); settings: HEK-Blue cells overexpressing human TLR7, SEAP reporter, gardiquimod 7.5 μM
# T1 construct: host or cells: HEK-Blue cells (HEK293-derived reporter line)
# T1 sequence (Q9NYK1 27-1049): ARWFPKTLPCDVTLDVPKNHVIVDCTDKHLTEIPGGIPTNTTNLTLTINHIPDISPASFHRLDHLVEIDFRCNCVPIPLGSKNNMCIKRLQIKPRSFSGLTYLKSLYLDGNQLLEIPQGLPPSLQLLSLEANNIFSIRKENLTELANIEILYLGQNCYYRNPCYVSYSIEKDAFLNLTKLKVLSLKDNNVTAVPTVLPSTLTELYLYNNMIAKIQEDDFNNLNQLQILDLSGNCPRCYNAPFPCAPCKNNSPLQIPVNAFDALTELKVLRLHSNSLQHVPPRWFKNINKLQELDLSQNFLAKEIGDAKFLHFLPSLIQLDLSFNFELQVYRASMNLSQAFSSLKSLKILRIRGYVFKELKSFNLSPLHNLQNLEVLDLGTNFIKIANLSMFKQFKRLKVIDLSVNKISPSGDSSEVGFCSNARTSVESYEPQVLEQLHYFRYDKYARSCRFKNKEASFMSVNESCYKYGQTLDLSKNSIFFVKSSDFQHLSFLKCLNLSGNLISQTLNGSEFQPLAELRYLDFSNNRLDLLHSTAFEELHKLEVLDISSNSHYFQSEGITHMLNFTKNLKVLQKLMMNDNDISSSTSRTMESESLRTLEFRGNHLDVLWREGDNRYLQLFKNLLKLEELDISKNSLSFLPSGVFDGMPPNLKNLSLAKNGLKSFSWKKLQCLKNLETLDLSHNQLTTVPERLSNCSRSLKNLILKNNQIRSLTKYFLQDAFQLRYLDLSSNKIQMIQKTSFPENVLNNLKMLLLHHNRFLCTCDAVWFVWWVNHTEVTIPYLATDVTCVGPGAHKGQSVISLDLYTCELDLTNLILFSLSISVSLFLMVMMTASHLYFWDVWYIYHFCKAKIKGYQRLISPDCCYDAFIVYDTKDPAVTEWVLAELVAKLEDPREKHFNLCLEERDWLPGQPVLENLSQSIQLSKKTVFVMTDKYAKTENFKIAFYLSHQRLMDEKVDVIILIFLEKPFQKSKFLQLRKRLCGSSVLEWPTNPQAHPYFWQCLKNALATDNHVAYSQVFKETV
# In short: (§1)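 Cells seeded per well (15000 TLR7, 20,000 TLR8, 25,000 TLR9); compound added over 0.05 nM–50 μM for 30 min at room temperature; agonist added (TLR7 gardiquimod 7.5 μM, TLR8 R848 15.9 μM, TLR9 ODN2006 5 nM); 22 h at 37 °C; SEAP measured; percent inhibition calculated.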
# [2] = biological target: T2, human TLR8 (Homo sapiens, UniProt Q9NR97); assay: TLR8 inhibition reporter assay (HEK-Blue cells, SEAP reporter, R848 stimulation); settings: HEK-Blue cells overexpressing human TLR8, SEAP reporter, R848 15.9 μM
# T2 construct: host or cells: HEK-Blue cells (HEK293-derived reporter line)
# T2 sequence (Q9NR97 27-1041): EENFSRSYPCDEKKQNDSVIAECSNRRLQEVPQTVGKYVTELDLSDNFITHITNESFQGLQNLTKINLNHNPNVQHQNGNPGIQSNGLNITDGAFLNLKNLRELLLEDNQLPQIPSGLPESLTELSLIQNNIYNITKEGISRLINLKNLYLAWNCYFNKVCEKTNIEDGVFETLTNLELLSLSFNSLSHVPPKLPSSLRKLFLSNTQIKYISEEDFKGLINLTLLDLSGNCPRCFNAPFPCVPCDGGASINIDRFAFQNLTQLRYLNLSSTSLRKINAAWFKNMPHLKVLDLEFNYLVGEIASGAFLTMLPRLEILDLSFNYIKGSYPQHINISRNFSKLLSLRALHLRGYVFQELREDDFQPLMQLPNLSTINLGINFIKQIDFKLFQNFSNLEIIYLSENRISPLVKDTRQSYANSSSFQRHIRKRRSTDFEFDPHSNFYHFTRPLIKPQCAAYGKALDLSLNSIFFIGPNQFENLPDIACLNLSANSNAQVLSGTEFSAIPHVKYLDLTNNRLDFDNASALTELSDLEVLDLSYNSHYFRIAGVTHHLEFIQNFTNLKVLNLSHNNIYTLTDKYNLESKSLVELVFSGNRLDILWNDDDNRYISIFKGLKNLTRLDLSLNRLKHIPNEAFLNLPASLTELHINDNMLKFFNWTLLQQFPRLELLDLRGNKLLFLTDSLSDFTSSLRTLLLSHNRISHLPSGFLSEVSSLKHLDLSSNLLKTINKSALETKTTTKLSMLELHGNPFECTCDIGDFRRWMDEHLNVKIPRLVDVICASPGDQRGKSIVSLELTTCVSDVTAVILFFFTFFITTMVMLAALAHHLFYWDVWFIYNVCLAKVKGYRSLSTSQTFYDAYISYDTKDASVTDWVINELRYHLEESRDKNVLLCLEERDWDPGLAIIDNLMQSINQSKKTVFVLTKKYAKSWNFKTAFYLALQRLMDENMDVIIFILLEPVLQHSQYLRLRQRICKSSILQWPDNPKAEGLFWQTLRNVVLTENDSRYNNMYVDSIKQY
# In short: as §1
# [3] = biological target: T3, human TLR9 (Homo sapiens, UniProt Q9NR96); assay: TLR9 inhibition reporter assay (HEK-Blue cells, SEAP reporter, ODN2006 stimulation); settings: HEK-Blue cells overexpressing human TLR9, SEAP reporter, ODN2006 5 nM
# T3 construct: host or cells: HEK-Blue cells (HEK293-derived reporter line)
# T3 sequence (Q9NR96 26-1032): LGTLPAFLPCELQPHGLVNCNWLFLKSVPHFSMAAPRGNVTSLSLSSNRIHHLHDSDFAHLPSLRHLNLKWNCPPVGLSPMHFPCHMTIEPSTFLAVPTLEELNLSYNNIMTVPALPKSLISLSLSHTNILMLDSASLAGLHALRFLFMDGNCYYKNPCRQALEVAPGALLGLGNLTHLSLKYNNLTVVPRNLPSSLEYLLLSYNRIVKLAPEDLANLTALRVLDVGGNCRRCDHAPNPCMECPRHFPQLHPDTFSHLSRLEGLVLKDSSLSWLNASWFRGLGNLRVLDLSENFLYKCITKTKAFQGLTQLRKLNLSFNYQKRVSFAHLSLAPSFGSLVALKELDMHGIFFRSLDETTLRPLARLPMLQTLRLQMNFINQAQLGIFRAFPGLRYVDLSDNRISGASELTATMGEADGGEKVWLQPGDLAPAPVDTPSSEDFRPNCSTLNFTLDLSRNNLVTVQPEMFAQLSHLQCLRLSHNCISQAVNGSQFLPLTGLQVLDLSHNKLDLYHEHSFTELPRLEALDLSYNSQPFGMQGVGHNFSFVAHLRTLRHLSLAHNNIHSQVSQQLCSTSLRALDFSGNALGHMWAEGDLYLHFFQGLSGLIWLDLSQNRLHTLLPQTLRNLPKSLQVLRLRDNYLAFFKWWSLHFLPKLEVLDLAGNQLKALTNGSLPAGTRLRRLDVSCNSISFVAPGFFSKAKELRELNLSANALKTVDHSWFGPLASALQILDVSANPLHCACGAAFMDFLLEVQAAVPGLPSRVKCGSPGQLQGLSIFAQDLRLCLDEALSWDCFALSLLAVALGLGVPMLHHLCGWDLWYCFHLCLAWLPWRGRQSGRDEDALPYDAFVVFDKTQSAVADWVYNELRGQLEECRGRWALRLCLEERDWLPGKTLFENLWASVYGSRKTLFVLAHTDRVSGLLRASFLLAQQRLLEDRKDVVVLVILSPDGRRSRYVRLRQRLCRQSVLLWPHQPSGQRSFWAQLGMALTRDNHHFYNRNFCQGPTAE
# In short: as §1
SMILES,IC50 [1],IC50 [2],IC50 [3]
"Cc1c(-c2ccnc3[nH]cc(C(C)C)c23)[nH]c2ccc(C3CCNCC3)cc12 [Example 214, 3-isopropyl-4-(3-methyl-5-(piperidin-4-yl)-1H-indol-2-yl)-1H-pyrrolo[2,3-b]pyridine]",1000 to 50000 nM,1000 to 50000 nM,100 to 1000 nM
"CNC(=O)CN1CCC(c2ccc3[nH]c(-c4cc(CC(C)C)n5nc(C)cc5c4)c(C(C)C)c3c2)CC1 [Example 392, 2-(4-(2-(7-isobutyl-2-methylpyrazolo[1,5-a]pyridin-5-yl)-3-isopropyl-1H-indol-5-yl)piperidin-1-yl)-N-methylacetamide]",> 3130 nM,> 3130 nM,1000 to 50000 nM
"Cc1cc(-c2[nH]c3ccc(C4CCN(C(=O)CCN5[C@@H]6CC[C@H]5COC6)CC4)cc3c2C(C)C)cn2nnnc12 [Example 635, 3-((1R,5S)-3-oxa-8-azabicyclo[3.2.1]octan-8-yl)-1-(4-(3-isopropyl-2-(8-methyltetrazolo[1,5-a]pyridin-6-yl)-1H-indol-5-yl)piperidin-1-yl)propan-1-one]",< 100 nM,< 100 nM,1000 to 50000 nM
"Cc1cc(-c2[nH]c3ccc(C4CCN(CC(=O)N(C)C)CC4)cc3c2C(C)C)cn2nncc12 [Example 307, 2-(4-(3-isopropyl-2-(4-methyl-[1,2,3]triazolo [1,5-a]pyridin-6-yl)-1H-indol-5-yl)piperidin-1-yl)-N,N-dimethylacetamide]",100 to 1000 nM,100 to 1000 nM,1000 to 50000 nM
"CNCCN1CCC(c2ccc3[nH]c(-c4ccc5[nH]ccc5c4)c(C)c3c2)CC1 [Example 667, N-methyl-2-(4-(3-methyl-1H,1′H-[2,5′-biindol]-5-yl)piperidin-1-yl)ethan-1-amine]",1000 to 50000 nM,1000 to 50000 nM,100 to 1000 nM
"Cc1cc(-c2[nH]c3ccc(C4CCN(CC(=O)N(C)C)CC4)cc3c2C(C)C)cc2[nH]cnc12 [Example 287, 2-(4-(3-isopropyl-2-(4-methyl-1H-benzo[d]imidazol-6-yl)-1H-indol-5-yl)piperidin-1-yl)-N,N-dimethylacetamide]",1000 to 50000 nM,100 to 1000 nM,1000 to 50000 nM

# Other lines, results leading:
IC50 [1],IC50 [2],IC50 [3],SMILES
< 100 nM,< 100 nM,1000 to 50000 nM,"Cc1cc(-c2[nH]c3ccc(C4CCN(CC(=O)N(C)C)CC4)cc3c2C(C)C)cc2cccnc12 [Example 435, 2-(4-(3-isopropyl-2-(8-methylquinolin-6-yl)-1H-indol-5-yl)piperidin-1-yl)-N,N-dimethylacetamide]"
< 100 nM,1000 to 50000 nM,1000 to 50000 nM,"Cc1cc(-c2[nH]c3ccc(C4CCNCC4)cc3c2C(C)C)cn2c(C)cnc12 [Example 121, 6-(3-isopropyl-5-(piperidin-4-yl)-1H-indol-2-yl)-3,8-dimethylimidazo[1,2-a]pyridine]"
100 to 1000 nM,< 100 nM,100 to 1000 nM,"CNCCN1CCC(c2ccc3[nH]c(-c4ccnc5[nH]ccc45)c(C)c3c2)CC1 [Example 668, N-methyl-2-(4-(3-methyl-2-(1H-pyrrolo[2,3-b]pyridin-4-yl)-1H-indol-5-yl)piperidin-1-yl)ethan-1-amine]"
< 100 nM,< 100 nM,1000 to 50000 nM,"CNC(=O)CN1CCC(c2ccc3[nH]c(-c4ccc5nccn5c4)c(C(C)C)c3c2)CC1 [Example 403, 2-(4-(2-(imidazo[1,2-a]pyridin-6-yl)-3-isopropyl-1H-indol-5-yl)piperidin-1-yl)-N-methylacetamide]"
< 100 nM,100 to 1000 nM,100 to 1000 nM,"Cc1cn2cc(-c3[nH]c4ccc(C5CCN(CC(=O)N(C)C)CC5)cc4c3C(C)C)cc(C(F)(F)F)c2n1 [Example 376, 2-(4-(3-isopropyl-2-(2-methyl-8-(trifluoromethyl)imidazo[1,2-a]pyridin-6-yl)-1H-indol-5-yl)piperidin-1-yl)-N,N-dimethylacetamide]"
< 100 nM,100 to 1000 nM,100 to 1000 nM,"Cc1cn2cc(-c3[nH]c4ccc(C5CCNCC5)cc4c3C(C)C)cc(F)c2n1 [Example 126, 8-fluoro-6-(3-isopropyl-5-(piperidin-4-yl)-1H-indol-2-yl)-2-methylimidazo[1,2-a]pyridine]"

# Reference: US11739098B2 (BRISTOL-MYERS SQUIBB COMPANY, priority 2017, dated 2023)
